Source: PubChem BioAssay AID1963871 (Molecular Pharmacology Branch, DTP, NCI, 2024)
Several values for one entry are separate records, joined by “and”; a condition that tells them apart may be missing. Identical values can stand only once.

Test system: KRAS-mutant PDC multicell tumor spheroid viability
Experiment: Anticancer human tumor 521955-158-R2-J5-PDC patient-derived pancreatic carcinoma cell line growth inhibition [KRAS2]
Details: for viability, T/C: stronger effect = lower value
Method in brief: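 KRAS-mutant tumor cells were grown as spheroids with HUVEC endothelial cells and human MSCs as stroma. Targeted agents were tested alone and with KRAS pathway inhibitors. Doses started at or near clinical Cmax, or 10 microM, descending half-log.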

[1] = curve of first compound, second compound 0.1 µM
[2] = curve of first compound, second compound 0.316 µM
[3] = curve of first compound, second compound 1 µM
[4] = curve of first compound, second compound 3.16 µM
[5] = curve of first compound, second compound 10 µM
[6] = second compound 0.1 µM, first compound 0.0316 µM
[7] = second compound 0.1 µM, first compound 0.1 µM
[8] = second compound 0.316 µM, first compound 0.0316 µM
[9] = second compound 0.316 µM, first compound 0.1 µM
[10] = second compound 1 µM, first compound 0.0316 µM
[11] = second compound 1 µM, first compound 0.1 µM
[12] = second compound 3.16 µM, first compound 0.0316 µM
[13] = second compound 3.16 µM, first compound 0.1 µM
[14] = second compound 10 µM, first compound 0.0316 µM
[15] = second compound 10 µM, first compound 0.1 µM
[16] = compound alone, run of 09/02/2021
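Note: viability read after seven days of drug exposure.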

## CC(C)n1nc(-c2ccc3oc(N)nc3c2)c2c(N)ncnc21 + CC1OCC2(CCN(c3cnc(Sc4ccnc(N)c4Cl)c(N)n3)CC2)C1N
[1]
  IC50: 6.21 nM
[2]
  IC50: 3.52 nM
[3]
  IC50: 0.359 nM
[4]
  IC50: < 0.316 nM
[5]
  IC50: < 0.316 nM
Second compound 0.1 µM, first compound 0.000316 µM
  viability, T/C: 71.5%
Second compound 0.1 µM, first compound 0.001 µM
  viability, T/C: 71.4%
Second compound 0.1 µM, first compound 0.00316 µM
  viability, T/C: 56.5%
Second compound 0.1 µM, first compound 0.01 µM
  viability, T/C: 44.2%
[6]
  viability, T/C: 32.8%
[7]
  viability, T/C: 24.6%
Second compound 0.316 µM, first compound 0.000316 µM
  viability, T/C: 59.1%
Second compound 0.316 µM, first compound 0.001 µM
  viability, T/C: 57.7%
Second compound 0.316 µM, first compound 0.00316 µM
  viability, T/C: 51.2%
Second compound 0.316 µM, first compound 0.01 µM
  viability, T/C: 39.5%
[8]
  viability, T/C: 31.2%
[9]
  viability, T/C: 25.2%
Second compound 1 µM, first compound 0.000316 µM
  viability, T/C: 48.9%
Second compound 1 µM, first compound 0.001 µM
  viability, T/C: 50.8%
Second compound 1 µM, first compound 0.00316 µM
  viability, T/C: 45%
Second compound 1 µM, first compound 0.01 µM
  viability, T/C: 36.9%
[10]
  viability, T/C: 28.1%
[11]
  viability, T/C: 21.6%
Second compound 3.16 µM, first compound 0.000316 µM
  viability, T/C: 47.5%
Second compound 3.16 µM, first compound 0.001 µM
  viability, T/C: 50.8%
Second compound 3.16 µM, first compound 0.00316 µM
  viability, T/C: 37.8%
Second compound 3.16 µM, first compound 0.01 µM
  viability, T/C: 29.4%
[12]
  viability, T/C: 23.4%
[13]
  viability, T/C: 19.3%
Second compound 10 µM, first compound 0.000316 µM
  viability, T/C: 47.7%
Second compound 10 µM, first compound 0.001 µM
  viability, T/C: 50.1%
Second compound 10 µM, first compound 0.00316 µM
  viability, T/C: 41.2%
Second compound 10 µM, first compound 0.01 µM
  viability, T/C: 28.4%
[14]
  viability, T/C: 24.6%
[15]
  viability, T/C: 19.6%

## CCNC(=O)CC1N=C(c2ccc(Cl)cc2)c2cc(OC)ccc2-n2c(C)nnc21 (stereo unspecified) + C=CC(=O)N1CCN(c2nc(=O)n(-c3c(C)ccnc3C(C)C)c3nc(-c4c(O)cccc4F)c(F)cc23)C(C)C1
[1]
  IC50: 474 nM
[2]
  IC50: 1180 nM
[3]
  IC50: 1100 nM
[4]
  IC50: 741 nM
[5]
  IC50: 169 nM
[6]
  viability, T/C: 99.4%
[7]
  viability, T/C: 93.4%
Second compound 0.1 µM, first compound 0.316 µM
  viability, T/C: 55.3%
Second compound 0.1 µM, first compound 1 µM
  viability, T/C: 41.1%
Second compound 0.1 µM, first compound 3.16 µM
  viability, T/C: 39.9%
Second compound 0.1 µM, first compound 10 µM
  viability, T/C: 35.7%
[8]
  viability, T/C: 119%
[9]
  viability, T/C: 98.4%
Second compound 0.316 µM, first compound 0.316 µM
  viability, T/C: 72.2%
Second compound 0.316 µM, first compound 1 µM
  viability, T/C: 50%
Second compound 0.316 µM, first compound 3.16 µM
  viability, T/C: 43.7%
Second compound 0.316 µM, first compound 10 µM
  viability, T/C: 37.1%
[10]
  viability, T/C: 120%
[11]
  viability, T/C: 109%
Second compound 1 µM, first compound 0.316 µM
  viability, T/C: 77%
Second compound 1 µM, first compound 1 µM
  viability, T/C: 52.3%
Second compound 1 µM, first compound 3.16 µM
  viability, T/C: 38.9%
Second compound 1 µM, first compound 10 µM
  viability, T/C: 35.8%
[12]
  viability, T/C: 101%
[13]
  viability, T/C: 86.7%
Second compound 3.16 µM, first compound 0.316 µM
  viability, T/C: 63%
Second compound 3.16 µM, first compound 1 µM
  viability, T/C: 45.4%
Second compound 3.16 µM, first compound 3.16 µM
  viability, T/C: 39.1%
Second compound 3.16 µM, first compound 10 µM
  viability, T/C: 37.5%
[14]
  viability, T/C: 66.5%
[15]
  viability, T/C: 58.6%
Second compound 10 µM, first compound 0.316 µM
  viability, T/C: 39.4%
Second compound 10 µM, first compound 3.16 µM
  viability, T/C: 29%
Second compound 10 µM, first compound 10 µM
  viability, T/C: 31.1%

## C=CC(=O)N1CCN(c2nc(OCC3CCCN3C)nc3c2CCN(c2cccc4cccc(C)c24)C3)CC1CC#N (stereo unspecified)
Compound alone, run of 08/26/2021
  IC50: 1.71 µM [middle of 5 runs]
[16]
  IC50: 1.82 µM [middle of 6 runs]

## CC(=O)OC12COC1CC(O)C1(C)C(=O)C(O)C3=C(C)C(OC(=O)C(O)C(NC(=O)OC(C)(C)C)c4ccccc4)CC(O)(C(OC(=O)c4ccccc4)C21)C3(C)C (stereo unspecified)
Compound 0.01 µM
  viability, T/C: 22.3% [middle of 5 runs]
Compound 0.0316 µM
  viability, T/C: 15.3% [middle of 5 runs]
Compound 0.1 µM
  viability, T/C: 14.2% [middle of 5 runs]
Compound 0.316 µM
  viability, T/C: 15.2% [middle of 5 runs]
Compound 1 µM
  viability, T/C: 18.1% [middle of 5 runs]
Compound 3.16 µM
  viability, T/C: 21.9% [middle of 5 runs]
Curve of compound
  IC50: < 10 nM

## CC1OCC2(CCN(c3cnc(Sc4ccnc(N)c4Cl)c(N)n3)CC2)C1N (stereo unspecified)
Compound 0.0316 µM
  viability, T/C: 84.3% and 94% and 83.1%
[16]
  IC50: > 10000 nM and 4030 nM
Curve of compound
  IC50: > 10000 nM
